# Data published in patent US20100189681A1, “Methods of Using Phosphoantigens Together with Interleukin-2 for the Treatment of Cancer” (INNATE PHARMA S.A., priority 2007, published 2010).
# Entries after “also recorded” stand apart in the source; their conditions may differ.
# Columns and labels:
# [1] = test system: Vγ9Vδ2 T cells; experiment: IL-2 dose range with fixed dose of Phosphostim in cynomolgus macaque, Vγ9Vδ2 T cell expansion by flow cytometry; assay type: in vivo, cynomolgus monkeys (M. fascicularis); conditions: Phosphostim 48 mg/kg i.v. once, day 5 vs day 0
# Protocol: As detailed in Example 2, a study has been set up on nonhuman primates (Cynomolgus macaques) to investigate the effect of the IL-2 dose on γδ T cell expansion in vivo, with a fixed dose of Phosphostim™ (48 mg/kg). Blood extracts have been dosed by flow cytometry on day 5 and the γδ T cell expansion has been expressed in expansion percentage compared to the basal γδ T cell count.
# Follow up of Vγ9Vδ2 T cells in vivo in the macaque has been performed as usual by flow cytometry on days 0 (pre-dose) and 5 of treatment. […]
# IL2: recombinant human IL2, Proleukin™, CHIRON; administered daily by subcutaneous (s.c.) route.
# Phosphostim™ dose 48 mg/kg administered as 30-min infusion by intravenous (i.v.) route.
# Twelve cynomolgus monkeys (M. fascicularis) aged 2.5 to 3.5 years at the start of the study. These animals were naïve of any previous treatment with phosphoantigens or IL2.
# The animals have been allocated to 4 dose-groups (0.075, 0.3, 1.2 and 2.4 million UI per day for 7 days), with 3 animals per dose, receiving IL2 daily for 7 days have, and a fixed dose of Phosphostim™ 200 (48 mg/kg) once, on the first day of treatment, with 3 animals per dose.
# [2] = test system: total T cells; experiment: Phase II clinical trial in mRCC, total T cell fold increase day 7 vs pre-dose; assay type: in vivo, human; conditions: Phosphostim with IL-2 2 MIU or 8 MIU total daily (FIG. 3)
# Protocol: (§1) FIG. 3 has been obtained from observations made during the clinical trial as described above. On day 7, cell subsets were determined and compared to the count made on day 0, before the treatment.
# (§2) A specific pharmacological expansion of γδ T cell with Phosphostim™ was observed, and this expansion was related to dose of IL-2 administered. […] Moreover, despite an increased dose of IL-2 compared to previous publications, this expansion is still very specific to γδ T cells.
# [3] = test system: γδ T cells; experiment: Phase II clinical trial in B-NHL with rituximab, γδ T cell fold increase; assay type: in vivo, human; conditions: for γδ T cell fold increase as compared to pre-dose (mean): B-NHL, Phosphostim once day 7, rituximab 375 mg/m^2, measured day 0 and day 145
# Protocol: (§3) 5 patients suffering from B-NHL are treated with 4 MIU total in human daily (arm A, 3 patients), or 8 MIU total in human daily (arm B, 2 patients). The treatment regimen used for this study is set out in FIG. 4B.
# (§4) Rituxan™ (rituximab) is administered at a dose of 375 mg/m^2, on day 0 and then on day 7, 14 and 21, which corresponds to the common Rituxan™ treatment. Phosphostim™ is administered once on day 7 which is the first day of treatment. IL-2 is administered daily subcutaneous (s.c.) from day 7 to day 11. On day 7, IL-2 is administered 10 minutes after the end of Phosphostim™ infusion.
# γδ T cell population is measured through cytometry on day 0 (before the beginning of the treatment) and on day 145 (corresponds to day 7 from the beginning of the Phosphostim™ treatment. The expansion of γδ T cell is obtained in fold increase compared to the basal γδ T cell count.
# [4] = Phase II clinical trial in mRCC, tolerance / toxicity; assay type: in vivo, human; conditions: mRCC patients
# Protocol: (§5) A phase II clinical trial in mRCC was set up, to test the efficacy of a therapeutic regimen with a fixed dose of Phosphostim™ (750 mg/m^2, 50 ml infusion in 30 min) and two doses of IL-2.
# (§6) Patients in Arm A were treated with an IL-2 dose of 2 MIU total daily (equivalent to approximately 1 MIU/m^2 daily). Patients in Arm B were treated with an IL-2 dose of 8 MIU total daily. For practical reasons, and as a human body surface varies from 1.5 to 2.1 m^2 depending on each variable of the patient, a single dose for all the patients of Arm B was fixed. It will be appreciated that when taking the variations in body surface into account, this 8 MIU total daily dose of IL-2 can also be expressed as a range from […] daily.
# (§7) Patients suffering from mRCC were treated with a fixed dose of Phosphostim™ (750 mg/m^2, i.v. infusion of 30 min) and IL-2, at a dose of 2 MIU subcutaneous (s.c.) daily (arm A, 18 patients), or 8 MIU s.c. daily (arm B, 21 patients).
# (§8) Phosphostim™ was administered once on day 1 which is the first day of treatment. IL-2 is administered daily s.c. from day 1 to day 5. On day 1, IL-2 is administered 10 minutes after the end of Phosphostim™ infusion.
# [5] = test system: γδ T cells; experiment: Phase I BrHPP dose escalation with IL-2 1 MU/m^2, γδ T cell amplification (FIG. 7); assay type: in vivo, human; conditions: BrHPP 100, 300, 600 and 900 MU/m^2 iv 30 min infusion day 1; IL-2 1 MU/m^2 daily for four days
# Protocol: The first four columns (corresponding to 100, 300, 600 and 900 MU/m^2 doses of BrHPP) correspond to patients treated with BrHPP (iv, 30 min infusion on day 1) and IL-2 (1 MU/m^2 daily for four days starting on day 1) whereas the last two columns represent B-NHL patients who have been treated with 4 MIU total in human daily (arm A), or 8 MIU total in human daily (arm B), in the treatment setting described for FIG. 6.
# [6] = test system: NK cells; experiment: Phase II clinical trial in mRCC, NK cell fold increase day 7 vs pre-dose; assay type: in vivo, human; conditions: Phosphostim with IL-2 2 MIU or 8 MIU total daily (FIG. 3)
# Protocol: as §1, §2
# [7] = test system: γδ T cells; experiment: Phase II clinical trial in mRCC, γδ T cell fold increase day 7 vs pre-dose (flow cytometry); assay type: in vivo, human
# Protocol: Blood samples (4 ml) were withdrawn into EDTA containing tubes. Tubes were shipped overnight at room temperature (RT) before flow cytometry analyses.
# Peripheral lymphocytes were analyzed by flow cytometry on total blood, after triple staining with anti-Vδ2FITC, anti-CD3PE and anti-CD25PC5 antibodies (Vδ2-FITC: IMMU389 clone, Immunotech-Beckman-Coulter, Marseilles, France; CD3-PE: UCHT1 clone, Immunotech-Beckman-Coulter; CD25PC5: M-A251 clone, Becton Dickinson, Le Pont de Claix, France).
# Briefly, 100 μl patient blood was incubated 15 min at RT with 10 μl anti-Vdelta2-FITC, 10 μl anti-CD3-PE and 10 μl anti-CD25PC5 antibodies. Antibodies were washed with 3 ml 1×PBS, centrifuged for 4 min at 1300 rpm at RT and supernatant was discarded. Red cells were lysed with the OptiLyse B reagent (Immunotech-Beckman-Coulter, Marseilles, France) according to the manufacturer's instructions. At the final step, stained white blood cells were recovered by centrifugation and resuspended in 300 μl 1×PBS+0.2% PFA. Flow cytometry analysis on viable cells was performed on a FacsSCAN apparatus (Becton Dickinson) with the FacsDiva software.
# as §5, §6, §7, §8
# γδ T cell population was measured through cytometry on day 0 (before the beginning of the treatment) and on day 7. The expansion of γδ T cell was obtained in fold increase of expansion compared to the basal γδ T cell count.
# [8] = Phase II clinical trial in B-NHL with rituximab, tolerance / toxicity; assay type: in vivo, human; conditions: B-NHL patients
# Protocol: as §3, §4
# [9] = test system: γδ T cells; conditions: adults with multiple myeloma, intravenous 60-90 mg, within one to three weeks (Kunzmann, 1999); cited from earlier work
# [10] = in vivo; cited from earlier work
compound,measurement,setting,value
3-(bromomethyl)-3-butanol-1-yl-diphosphate [Phosphostim™],γδ T cell expansion,[1]; IL-2 0.075 MIU/animal/day s.c. for 7 days,not sufficient to induce a γδT cell specific amplification; also recorded: no effect
same,γδ T cell expansion,[1]; IL-2 0.3 MIU/animal/day s.c. for 7 days,specific and significant γδcell expansion; also recorded: weak γδT cell increase
same,γδ T cell expansion,[1]; IL-2 1.2 MIU/animal/day s.c. for 7 days,the expansion is higher; also recorded: significantly higher increase; also recorded: a plateau is observed at this dose
same,γδ T cell expansion,[1]; IL-2 2.4 MIU/animal/day s.c. for 7 days,the expansion is higher; also recorded: significantly higher increase; also recorded: does not trigger a better expansion than 1.2 MIU/animal/daily
same,total T cell fold increase on day 7 as compared to pre-dose,[2],are not expanded; also recorded: nor a significant total T cell expansion
same,γδ T cell fold increase as compared to pre-dose (mean),"[3]; arm A: IL-2 4 MIU total daily s.c. day 7-11, 3 patients",17 fold
same,γδ T cell fold increase as compared to pre-dose (mean),"[3]; arm B: IL-2 8 MIU total daily s.c. day 7-11, 2 patients",46 fold
same,"γδ T cell amplification, higher IL-2 dose compared to lower dose",[3]; IL-2 8 MIU total daily vs lower IL-2 doses (FIGS. 6 and 7),much better γδ T cell amplification
same,toxicity in Arm B compared to Arm A,[4]; IL-2 8 MIU vs 2 MIU total daily with Phosphostim,none of the patients in arm B experienced an adverse toxicity effect; also recorded: no significant difference in toxicity
same,tolerance to the IL-2 dose administered with Phosphostim,[4]; arm B IL-2 8 MIU total daily,good tolerance
same,influence of the quantity of BrHPP on the γδ T cell amplification,[5],slight influence
same,NK cell fold increase on day 7 as compared to pre-dose,[6],are not expanded; also recorded: do not observe a significant NK cells expansion
same,"γδ T cell expansion, arm B compared to arm A","[7]; IL-2 8 MIU total daily vs 2 MIU total daily, fixed Phosphostim 750 mg/m^2",significantly better γδ T cell expansion; also recorded: significantly higher
same,γδ T cell fold increase on day 7 as compared to pre-dose (mean),"[7]; arm A: IL-2 2 MIU total daily s.c. day 1-5, Phosphostim 750 mg/m^2 i.v. day 1, 18 patients (FIG. 2)",3 fold
same,γδ T cell fold increase on day 7 as compared to pre-dose (mean),"[7]; arm A: IL-2 2 MIU total daily, updated results, 29 patients (FIG. 5)",2 fold
same,γδ T cell fold increase on day 7 as compared to pre-dose (mean),"[7]; arm B: IL-2 8 MIU total daily s.c. day 1-5, Phosphostim 750 mg/m^2 i.v. day 1, 21 patients (FIG. 2)",12 fold
same,γδ T cell fold increase on day 7 as compared to pre-dose (mean),"[7]; arm B: IL-2 8 MIU total daily, updated results, 31 patients (FIG. 5)",8 fold
same,toxicity in Arm B compared to Arm A,[8]; IL-2 8 MIU vs 4 MIU total daily,no significant difference in toxicity
same,tolerance to the IL-2 dose administered with Phosphostim and rituximab,[8]; arm B IL-2 8 MIU total daily,good tolerance
"NCCC(O)(P(=O)(O)O)P(=O)(O)O [pamidronate, 3-amino-1-hydroxypropane-1,1-diphosphonic acid]",circulating γδ T cells,[9],increases of circulating γδ T cells
"des-alanyl-1, serine-125-human interleukin-2 [IL-2]",toxicity grade reported,[10],grade III or IV toxicity
